Experimental data reported in ChEMBL document CHEMBL1130536 (Bioorg Med Chem Lett, 1997).

Assays:
Mus musculus [1] = test: Mean effective dose that protects 50% of the mice against AMPA-induced lethality when it administered ip, 60 minutes prior to application of AMPA icv; type: functional
Glutamate NMDA receptor = test: Binding affinity against glycine binding site of NMDA receptor using [3H]glycine; type: protein-complex assay, Rattus norvegicus
Mus musculus [2] = species: Mus musculus; test: The compound was tested for Mean effective dose which protects the mice against seizures induced by Maximum electroshock (MES); type: functional
[3] = biological target: Glutamate receptor ionotropic AMPA (Homo sapiens, UniProt P42261+P42262+P42263+P48058)
Description: In vitro binding affinity against AMPA receptor by [3H]AMPA displacement.

Mus musculus [4] = species: Mus musculus; test: Percent protection of the mice against seizures induced by Maximum electroshock, by the compound was determined; type: functional
Mus musculus [5] = species: Mus musculus; test: The compound was tested for Mean effective dose which protects the mice against seizures induced by Maximum electroshock; type: functional

Row | Compound | ED50 (Mus musculus [1]) [mg/kg] | Ki (Glutamate NMDA receptor) [nM] | ED50 (Mus musculus [2]) [mg/kg] | Ki [3] [nM] | Protection (Mus musculus [4]) [%] | ED50 (Mus musculus [5]) [mg/kg]
1 | O=C(O)Cn1c(=O)c(=O)[nH]c2cc([N+](=O)[O-])c(-n3ccc(C(=O)O)c3)cc21 | 1.4 | > 30000 | 2.4 | – | – | –
2 | CCOC(=O)Cn1c(=O)c(=O)[nH]c2cc([N+](=O)[O-])c(-n3ccc(C(=O)O)c3)cc21 | – | – | – | 215 | – | –
3 | O=C(O)Cn1c(=O)c(=O)[nH]c2cc(C(F)(F)F)c(-n3ccc(CNC(=O)Nc4ccc(C(=O)O)cc4)c3)cc21 | 0.27 | > 30000 | 1.4 | 7 | – | –
4 | O=C(O)Cn1c(=O)c(=O)[nH]c2cc(C(F)(F)F)c(-n3ccc(CNC(=O)Nc4cccc(C(=O)O)c4)c3)cc21 | 3.5 | > 30000 | 13.5 | 20 | – | –
5 | CCOC(=O)c1ccc(NC(=O)NCc2ccn(-c3cc4nc(O)c(O)nc4cc3C(F)(F)F)c2)cc1 | – | – | – | 450 | – | –
6 | CCOC(=O)Cn1c(=O)c(=O)[nH]c2cc(C(F)(F)F)c(-n3ccc(C(=O)O)c3)cc21 | – | > 30000 | – | 1500 | – | –
7 | O=C(O)Cn1c(=O)c(=O)[nH]c2cc(C(F)(F)F)c(-n3ccc(C(=O)O)c3)cc21 | 2.3 | > 30000 | 2.4 | 66 | – | –
8 | O=C(NCc1ccn(-c2cc3nc(O)c(O)nc3cc2C(F)(F)F)c1)Nc1ccc(C(=O)O)cc1 | ~11 | > 30000 | – | 54 | 0 | 46
9 | O=C(O)c1ccn(-c2cc3nc(O)c(O)nc3cc2[N+](=O)[O-])c1 | 17 | > 30000 | – | 60 | – | –
10 | CCOC(=O)c1cccc(NC(=O)NCc2ccn(-c3cc4c(cc3C(F)(F)F)[nH]c(=O)c(=O)n4CC(=O)O)c2)c1 | 2.9 | > 30000 | 28.5 | 4 | – | –
11 | CCOC(=O)c1ccc(NC(=O)NCc2ccn(-c3cc4c(cc3C(F)(F)F)[nH]c(=O)c(=O)n4CC(=O)O)c2)cc1 | 0.8 | > 30000 | – | 4 | – | –
12 | NS(=O)(=O)c1cccc2c1c([N+](=O)[O-])cc1nc(O)c(O)nc12 [NBQX] | – | 33000 | – | – | 31 | 46
13 | O=c1[nH]c2cc(-n3ccnc3)c([N+](=O)[O-])cc2[nH]c1=O [YM-90K] | 13 | 7400 | – | – | – | –
